Measurements reported in patent US3980779A, “3-Amino-1,2,4-benzotriazine-1,4-di-N-oxide compositions and method of using same” (Bayer Aktiengesellschaft, priority 1972, dated 1976).
In brackets after ≈: the same amount, converted by molar mass. Read-outs that look alike come from different tables or passages of the source.

How the values were obtained:
Klebsiella 63 = assay: MIC plate test; assay type: cell-based; conditions: nutrient medium, 37°C, 24 hours
Source text: (§1) The antimicrobial activity of these compounds can be conveniently observe in in vitro and in vivo models. For example, their minimum inhibitory concentration (MIC) can be determined in the plate test on a complete nutrient base of the following composition: 10 g of proteose-peptone, 10 g of veal infusion, 2 g of dextrose, 3 g of sodium chloride, 2 g of disodium phosphate, 1 g of sodium acetate, 0.01 g of adenine sulfate, 0.01 g of guanine hydrochloride, 0.01 g of uracil, 0.01 g of xantine, 12 g of agar-agar and 1 liter of water. With an incubation temperature of 37°C and an incubation time of 24 hours, the following typical values can be observed: […]

Klebsiella 8085 = assay: MIC plate test; assay type: cell-based; conditions: nutrient medium, 37°C, 24 hours
Source text: as §1

Proteus vulgaris 1017 = assay: MIC plate test; assay type: cell-based; conditions: nutrient medium, 37°C, 24 hours
Source text: as §1

[1] = test system: Pseudomonas aeruginosa BONN; assay: MIC plate test; assay type: cell-based; conditions: nutrient medium, 37°C, 24 hours
Source text: as §1

Pseudomonas aeruginosa W = assay: MIC plate test; assay type: cell-based; conditions: nutrient medium, 37°C, 24 hours
Source text: as §1

[2] = test system: Staphylococcus aureus 133; assay: MIC plate test; assay type: cell-based; conditions: nutrient medium, 37°C, 24 hours
Source text: as §1

Streptococcus pyogenes W = assay: MIC plate test; assay type: cell-based; conditions: nutrient medium, 37°C, 24 hours
Source text: as §1

E. coli A 261 = assay: MIC plate test; assay type: cell-based, Escherichia coli; conditions: 37°C, 24 hours
Source text: as §1

E. coli C 165 = assay: MIC plate test; assay type: cell-based, Escherichia coli; conditions: 37°C, 24 hours
Source text: as §1

E.coli C 165 = assay: in vivo infection of white mice, subcutaneous administration; conditions: 15 minutes before intraperitoneal infection, 24 hours later
Source text: (§2) The above in vitro data are confirmed in in vivo infections.

[3] = test system: Staphylococcus aureus 133; assay: as above; conditions: 15 minutes before intraperitoneal infection, 24 hours later
Source text: as §2

[4] = growth promoting activity and fodder utilisation in chicken; assay type: in vivo; conditions: 10 PPM in fodder
Protocol: The growth promoting activity of the new compounds and their effectiveness in improving the fodder utilisation may be illustrated by the following data:
Test animals : chicken (kept in cages, with complete fodder and water ad libitum)
The active ingredient is mixed in a finely divided form to the fodder according to customary methods. The tests were performed with 12 animals in each tested group.
Active ingredient: compound of Example 4
Concentration of the active ingredient in the fodder: […]

Nc1n[n+]([O-])c2ccccc2[n+]1[O-] [Compound A, 3-amino-1,2,4-benzotriazine-1,4-di-N-oxide]
MIC (Klebsiella 63; read-out: MIC): 4 µg/mL (≈ 22.5 µM)
MIC (Klebsiella 8085; read-out: MIC): 2 µg/mL (≈ 11.2 µM)
MIC (Proteus vulgaris 1017; read-out: MIC): 2 µg/mL (≈ 11.2 µM)
MIC ([1]; read-out: MIC): 8 µg/mL (≈ 44.9 µM)
MIC (Pseudomonas aeruginosa W; read-out: MIC): 64 µg/mL (≈ 359 µM)
MIC ([2]; read-out: MIC): 16 µg/mL (≈ 89.8 µM)
MIC (Streptococcus pyogenes W; read-out: MIC): 32 µg/mL (≈ 180 µM)
MIC (E. coli A 261; Escherichia coli, A261, nutrient medium, read-out: MIC): 4 µg/mL (≈ 22.5 µM)
MIC (E. coli C 165; Escherichia coli, C165, nutrient medium, read-out: MIC): 4 µg/mL (≈ 22.5 µM)
ED50 (E.coli C 165; Escherichia coli, C165, sc, read-out: ED50): 20 mg/kg

isomeric mixture of 6-chloro- and 7-chloro-3-amino-1,2,4-benzotriazine-1,4-di-N-oxide [Compound B]
MIC (Klebsiella 63): 8 µg/mL
MIC (Klebsiella 8085): 1 µg/mL
MIC (Proteus vulgaris 1017): 4 µg/mL
MIC [1]: 128 µg/mL
MIC (Pseudomonas aeruginosa W): 128 µg/mL
MIC [2]: 8 µg/mL
MIC (Streptococcus pyogenes W): 8 µg/mL
MIC (E. coli A 261; nutrient medium): 8 µg/mL
MIC (E. coli C 165; nutrient medium): 8 µg/mL
ED50 [3]: 250 mg/kg

isomeric mixture of 6-methoxy and 7-methoxy-3-amino-1,2,4-benzotriazine-1,4-di-N-oxide [Compound C]
MIC (Klebsiella 63): 2 µg/mL
MIC (Klebsiella 8085): 1 µg/mL
MIC (Proteus vulgaris 1017): 1 µg/mL
MIC [1]: 32 µg/mL
MIC (Pseudomonas aeruginosa W): 64 µg/mL
MIC [2]: 4 µg/mL
MIC (Streptococcus pyogenes W): 4 µg/mL
MIC (E. coli A 261; nutrient medium): 2 µg/mL
MIC (E. coli C 165; nutrient medium): 2 µg/mL
ED50 (E.coli C 165): 25 mg/kg
ED50 [3]: 40 mg/kg
Consumption of fodder in relation to the control group ([4]; week 0): 100%
Weight increase in relation to the control group ([4]; week 0): 100%
weight increase (all animals) ([4]; week 0): 75 gram
Consumption of fodder in relation to the control group ([4]; week 1): 85.7%
Weight increase in relation to the control group ([4]; week 1): 102.8%
weight increase (all animals) ([4]; week 1): 148.4 gram
Consumption of fodder in relation to the control group ([4]; week 2): 90.4%
Weight increase in relation to the control group ([4]; week 2): 109.0%
weight increase (all animals) ([4]; week 2): 276.7 gram
Consumption of fodder in relation to the control group ([4]; week 3): 93.4%
Weight increase in relation to the control group ([4]; week 3): 105.8%
weight increase (all animals) ([4]; week 3): 475.0 gram
Consumption of fodder in relation to the control group ([4]; week 4): 98.5%
Weight increase in relation to the control group ([4]; week 4): 110.4%
weight increase (all animals) ([4]; week 4): 761.8 gram
Consumption of fodder in relation to the control group ([4]; week 5): 101.1%
Weight increase in relation to the control group ([4]; week 5): 106.4%
weight increase (all animals) ([4]; week 5): 1019.1 gram
Consumption of fodder in relation to the control group ([4]; week 6): 92.2%
Weight increase in relation to the control group ([4]; week 6): 106.0%
weight increase (all animals) ([4]; week 6): 1296.4 gram
